Literature values as cited in patent publication US11008566B2, “Method for obtaining antibody” (Chiome Bioscience Inc., priority 2016, dated 2021).

Conditions: antibody drugs, Non Patent Literatures 1 and 2

Lucentis: antibody drug (registered trademark), high-affinity antibody
Kd: 0.046 nM
